Data from patent US8557839B2, “Fused ring azadecalin glucocorticoid receptor modulators” (Corcept Therapeutics, Inc., priority 2004, dated 2013).

How the values were obtained:
glucocorticoid receptors [1] = biological target: T1, glucocorticoid receptors (Homo sapiens, UniProt P04150); test: Glucocorticoid receptor binding displacement assay with 3H-dexamethasone; set-up: This GR was a full-length steroid hormone receptor; host or cells: recombinant baculovirus-infected insect cells
T1 sequence (P04150 1-777): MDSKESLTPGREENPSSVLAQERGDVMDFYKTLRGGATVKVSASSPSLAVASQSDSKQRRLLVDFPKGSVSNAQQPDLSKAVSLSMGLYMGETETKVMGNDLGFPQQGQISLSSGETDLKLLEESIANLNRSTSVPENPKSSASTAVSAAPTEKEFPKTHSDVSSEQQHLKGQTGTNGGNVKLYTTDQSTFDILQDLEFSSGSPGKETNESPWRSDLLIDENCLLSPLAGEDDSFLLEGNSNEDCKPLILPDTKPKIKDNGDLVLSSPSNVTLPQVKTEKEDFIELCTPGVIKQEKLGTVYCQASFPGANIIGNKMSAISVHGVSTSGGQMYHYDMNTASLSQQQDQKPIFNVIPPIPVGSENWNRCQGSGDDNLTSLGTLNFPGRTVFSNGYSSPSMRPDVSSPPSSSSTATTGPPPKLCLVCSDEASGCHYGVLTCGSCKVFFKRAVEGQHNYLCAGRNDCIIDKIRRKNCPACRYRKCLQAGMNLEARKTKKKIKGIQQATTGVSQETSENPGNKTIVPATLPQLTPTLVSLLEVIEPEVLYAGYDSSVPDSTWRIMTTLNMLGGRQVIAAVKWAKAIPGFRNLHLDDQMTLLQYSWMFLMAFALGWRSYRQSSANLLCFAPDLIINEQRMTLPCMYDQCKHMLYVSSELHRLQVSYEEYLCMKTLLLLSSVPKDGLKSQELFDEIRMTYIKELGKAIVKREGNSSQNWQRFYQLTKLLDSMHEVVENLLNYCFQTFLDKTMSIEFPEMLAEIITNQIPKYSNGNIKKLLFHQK
Method: The source of the receptor was recombinant baculovirus-infected insect cells. This GR was a full-length steroid hormone receptor likely to be associated with heat-shock and other endogenous proteins.
For the Primary Screen, test compounds were tested at 1 μM in duplicate. These compounds were diluted from 10 mM stock in 100% DMSO. After dilution to 100 μM, 5 μl were added to 245 μl assay buffer to obtained 2 μM compound and 2% DMSO.
For the IC50 determinations, test compounds were tested at 6 concentrations in duplicate (concentration range depends on % inhibition binding that was obtained in the Primary Screen). Test compounds were diluted from 10 mM stock in 100% DMSO. The tested solutions were prepared at 2× final assay concentration in 2% DMSO/assay buffer.
All reagents and the assay plate were kept on ice during the addition of reagents. […] After the additions, the incubation mixture was mixed and incubated for 2.5 hrs at 4° C.
After 2.5 hrs incubation, unbound counts were removed with dextran coated charcoal (DCC) as follows: 25 μl of DCC solution (10% DCC in assay buffer) was added to all wells and mixed (total volume 225 μl). The plate was centrifuged at 4000 rpm for 10 minutes at 4° C. 75 μl of the supernatants (i.e.⅓ of total volume) was carefully pipetted into an optiplate. 200 μl of scintillation cocktail were added (Microscint-40, Packard Bioscience. B.V.). The plate was vigorously shaken for approx. 10 minutes and counted on Topcount.
The IC50 values were converted to Ki (the inhibition constant) using the Cheng-Prusoff equation.
Reagents: Assay buffer: 10 mM potassium phosphate buffer pH 7.6 containing 5 mM DTT, 10 mM sodium molybdate, 100 μM EDTA and 0.1% BSA.

glucocorticoid receptors [2] = biological target: T1, glucocorticoid receptors; test: GR functional assay using SW1353/MMTV-5 cells (dexamethasone-induced luciferase); type: cell-based; set-up: contains endogenous glucocorticoid receptors; endogenous in cells; host or cells: SW1353/MMTV-5 (human chondrosarcoma, stably carrying the pMAMneo-Luc reporter)
Method: SW1353/MMTV-5 is an adherent human chondrosarcoma cell line that contains endogenous glucocorticoid receptors. It was transfected with a plasmid (pMAMneo-Luc) encoding firefly luciferase located behind a glucocorticoid-responsive element (GRE) derived from a viral promoter (long terminal repeat of mouse mammary tumor virus). A stable cell line SW1353/MMTV-5 was selected with geneticin, which was required to maintain this plasmid.
SW1353/MMTV-5 cells were distributed in 96-well plates and incubated in medium (without geneticin) for 24 hrs (in the absence of CO2).

[3] = Ki from IC50 by Cheng-Prusoff, 2.5 nM 3H-dexamethasone, read-out: GR Binding

Row | SMILES | Ki (glucocorticoid receptors [1]; [3]) [nM] | Ki (glucocorticoid receptors [2]; read-out: GR Functional) [nM] | Ki (glucocorticoid receptors [1]) [nM] | Ki (glucocorticoid receptors [2]) [nM]
1 | CC(C)(C)c1ccc(S(=O)(=O)N2CCC3=Cc4c(cnn4-c4ccc(F)cc4)C[C@]3(Cc3ccccc3)C2)cc1 | < 10 | < 10 |  | 
2 | COc1ccc(-n2ncc3c2C=C2CCN(S(=O)(=O)c4ccc(C(C)(C)C)cc4)C[C@@]2(Cc2ccccc2)C3)cc1 | < 10 | 10 to 100 |  | 
3 | Cc1ccc(-n2ncc3c2C=C2CCN(S(=O)(=O)c4ccc(C(C)(C)C)cc4)C[C@@]2(Cc2ccccc2)C3)cc1 | < 10 | > 100 |  | 
4 | CC(C)(C)c1ccc(S(=O)(=O)N2CCC3=Cc4c(cnn4-c4ccccn4)C[C@]3(C)C2)cc1 | 10 to 100 |  |  | 
5 | O=S(=O)(c1ccccc1)N1CCC2=Cc3c(cnn3-c3ccc(F)cc3)C[C@]2(CO)C1 | 10 to 100 |  |  | 
6 | COCCCOC[C@]12Cc3cnn(-c4ccc(F)cc4)c3C=C1CCN(S(=O)(=O)c1ccc(C(C)(C)C)cc1)C2 | < 10 | < 10 |  | 
7 | CC(C)(C)c1ccc(S(=O)(=O)N2CCC3=Cc4c(cnn4-c4ccc(F)cc4)C[C@]3(COCCC#N)C2)cc1 | < 10 | < 10 |  | 
8 | CC(C)(C)c1ccc(S(=O)(=O)N2CCC3=Cc4c(cnn4-c4ccc(F)cc4)C[C@]3(COCCN3CCOCC3)C2)cc1 | 10 to 100 | > 100 |  | 
9 | CC(C)(C)c1ccc(S(=O)(=O)N2CCC3=Cc4c(cnn4-c4ccc(F)cc4)C[C@]3(COCCN3CCCCC3)C2)cc1 | < 10 | 10 to 100 |  | 
10 | COCCOC[C@]12Cc3cnn(-c4ccc(F)cc4)c3C=C1CCN(S(=O)(=O)c1ccc(F)cc1)C2 | < 10 | < 10 |  | 
11 | COC[C@]12Cc3cnn(-c4ccc(F)cc4)c3C=C1CCN(S(=O)(=O)c1ccc(F)cc1)C2 | < 10 | 10 to 100 |  | 
12 | COC[C@]12Cc3cnn(-c4ccc(F)cc4)c3C=C1CCN(S(=O)(=O)c1ccc(C)cc1)C2 | < 10 | < 10 |  | 
13 | COCCOC[C@]12Cc3cnn(-c4ccc(F)cc4)c3C=C1CCN(S(=O)(=O)c1ccccc1)C2 | < 10 | < 10 |  | 
14 | COC[C@]12Cc3cnn(-c4ccc(F)cc4)c3C=C1CCN(S(=O)(=O)c1ccccc1)C2 | < 10 | 10 to 100 |  | 
15 | COCCOC[C@]12Cc3cnn(-c4ccc(F)cc4)c3C=C1CCN(S(=O)(=O)N(C)C)C2 | > 100 | > 100 |  | 
16 | COC[C@]12Cc3cnn(-c4ccc(F)cc4)c3C=C1CCN(S(=O)(=O)N(C)C)C2 | 10 to 100 | > 100 |  | 
17 | CCCCS(=O)(=O)N1CCC2=Cc3c(cnn3-c3ccc(F)cc3)C[C@]2(COCCOC)C1 | < 10 | 10 to 100 |  | 
18 | COCCOC[C@]12Cc3cnn(C)c3C=C1CCN(S(=O)(=O)c1ccc(C(C)(C)C)cc1)C2 | 10 to 100 | > 100 |  | 
19 | CCCCn1ncc2c1C=C1CCN(S(=O)(=O)c3ccc(C(C)(C)C)cc3)C[C@@]1(COCCOC)C2 | < 10 | 10 to 100 |  | 
20 | COCCOC[C@]12Cc3cnn(C(C)C)c3C=C1CCN(S(=O)(=O)c1ccc(C(C)(C)C)cc1)C2 | < 10 | 10 to 100 |  | 
21 | COC[C@]12Cc3cnn(C(C)C)c3C=C1CCN(S(=O)(=O)c1ccc(C(C)(C)C)cc1)C2 | 10 to 100 | > 100 |  | 
22 | CCCCn1ncc2c1C=C1CCN(S(=O)(=O)c3ccc(C)cc3)C[C@@]1(COC)C2 | 10 to 100 | > 100 |  | 
23 | CC(C)(C)c1ccc(S(=O)(=O)N2CCC3=Cc4c(cnn4-c4ccc(F)cc4)C[C@]3(CN3CCC3)C2)cc1 |  |  | < 10 | 10 to 100
24 | C=CCNC[C@]12Cc3cnn(-c4ccc(F)cc4)c3C=C1CCN(S(=O)(=O)c1ccc(C(C)(C)C)cc1)C2 | < 10 | 10 to 100 |  | 
25 | CC(C)(C)c1ccc(S(=O)(=O)N2CCC3=Cc4c(cnn4-c4ccc(F)cc4)C[C@]3(CNCCO)C2)cc1 | < 10 | 10 to 100 |  | 

Row | SMILES | Ki (glucocorticoid receptors [1]; [3]) [nM] | Ki (glucocorticoid receptors [2]; read-out: GR Functional) [nM] | Ki (glucocorticoid receptors [1]) [nM] | Ki (glucocorticoid receptors [2]) [nM]
26 | Cc1ccc(S(=O)(=O)N2CCC3=Cc4c(cnn4-c4ccc(F)cc4)C[C@]3(CN(C)C)C2)cc1 | < 10 | 10 to 100 |  | 
27 | Cc1ccc(S(=O)(=O)N2CCC3=Cc4c(cnn4-c4ccc(F)cc4)C[C@]3(CN3CCCC3)C2)cc1 | < 10 | < 10 |  | 
28 | CN(C)C[C@]12Cc3cnn(-c4ccc(F)cc4)c3C=C1CCN(S(=O)(=O)c1ccc(F)cc1)C2 | < 10 | 10 to 100 |  | 
29 | O=S(=O)(c1ccc(F)cc1)N1CCC2=Cc3c(cnn3-c3ccc(F)cc3)C[C@]2(CN2CCCC2)C1 | < 10 | < 10 |  | 
30 | O=S(=O)(c1ccccc1)N1CCC2=Cc3c(cnn3-c3ccc(F)cc3)C[C@]2(CN2CCCC2)C1 | < 10 | < 10 |  | 
31 | CN(C)C[C@]12Cc3cnn(-c4ccc(F)cc4)c3C=C1CCN(S(=O)(=O)c1ccccc1)C2 | < 10 | 10 to 100 |  | 
32 | CN(CCO)C[C@]12Cc3cnn(-c4ccc(F)cc4)c3C=C1CCN(S(=O)(=O)c1ccc(C(C)(C)C)cc1)C2 | < 10 | < 10 |  | 
33 | CCCCS(=O)(=O)N1CCC2=Cc3c(cnn3-c3ccc(F)cc3)C[C@]2(CN2CCOCC2)C1 | 10 to 100 | > 100 |  | 
34 | N#Cc1ccc(S(=O)(=O)N2CCC3=Cc4c(cnn4-c4ccc(F)cc4)C[C@]3(CN3CCOCC3)C2)cc1 | < 10 | > 100 |  | 
35 | CCN(CC)C[C@]12Cc3cnn(-c4ccc(F)cc4)c3C=C1CCN(S(=O)(=O)c1ccccc1)C2 | < 10 | 10 to 100 |  | 
36 | CCN(CC)C[C@]12Cc3cnn(-c4ccc(F)cc4)c3C=C1CCN(S(=O)(=O)c1ccc(OC)cc1)C2 | < 10 | 10 to 100 |  | 
37 | O=S(=O)(c1ccccc1)N1CCC2=Cc3c(cnn3-c3ccc(F)cc3)C[C@]2(CN2CCCCC2)C1 |  |  | < 10 | 10 to 100
38 | COc1ccc(S(=O)(=O)N2CCC3=Cc4c(cnn4-c4ccc(F)cc4)C[C@]3(CN3CCCCC3)C2)cc1 | 10 to 100 | 10 to 100 |  | 
39 | CCCCn1ncc2c1C=C1CCN(S(=O)(=O)c3ccc(C)cc3)C[C@@]1(CN1CCCCC1)C2 | 10 to 100 |  |  | 
40 | CC(C)(C)c1ccc(S(=O)(=O)N2CCC3=Cc4c(cnn4CC(F)(F)F)C[C@]3(CN3CCCC3)C2)cc1 | 10 to 100 | > 100 |  | 
41 | CCCCn1ncc2c1C=C1CCN(S(=O)(=O)c3ccc(C(C)(C)C)cc3)C[C@@]1(CN(C)C)C2 | 10 to 100 | > 100 |  | 
42 | CCCCn1ncc2c1C=C1CCN(S(=O)(=O)c3ccc(C(C)(C)C)cc3)C[C@@]1(CN1CCCCC1)C2 | < 10 | 10 to 100 |  | 
43 | O=S(=O)(c1ccccn1)N1CCC2=Cc3c(cnn3-c3ccc(F)cc3)C[C@]2(CN2CCOCC2)C1 | < 10 |  |  | 
44 | CC(C)(C)c1ccc(S(=O)(=O)N2CCC3=Cc4c(cnn4-c4ccc(F)cc4)CC3(Cc3ccc(F)cc3)C2)cc1 (stereo not shown) |  |  | < 10 | 10 to 100
45 | Fc1ccc(CC23Cc4cnn(-c5ccc(F)cc5)c4C=C2CCN(Cc2cccnc2)C3)cc1 (stereo not shown) |  |  | 10 to 100 | > 100
46 | O=S(=O)(N1CCOCC1)N1CCC2=Cc3c(cnn3-c3ccc(F)cc3)CC2(Cc2ccc(F)cc2)C1 (stereo not shown) |  |  | 10 to 100 | > 100
47 | CC(C)(C)c1ccc(S(=O)(=O)N2CCC3=Cc4c(cnn4-c4ccc(C(F)(F)F)cc4)CC3(Cc3ccccc3)C2)cc1 (stereo not shown) [drawing 238] | 10 to 100 |  |  | 
48 | CC(C)(C)c1ccc(S(=O)(=O)N2CCC3=Cc4c(cnn4-c4ccc(C(F)(F)F)cc4)CC3(Cc3ccccc3)C2)cc1 (stereo not shown) [drawing 254] | 10 to 100 |  |  | 
49 | CC(C)(C)c1ccc(S(=O)(=O)N2CCC3=Cc4c(cnn4Cc4cccc(O)c4)CC3(Cc3ccccc3)C2)cc1 (stereo not shown) [drawing 257] | > 100 |  |  | 
